Common to all, as to format: biochemical
The target in test [1] is T1, mouse 11β-HSD1 (Mus musculus, UniProt P50172).
T1 construct: The obtained PCR products of about 0.9 kbp, 1.2 kbp, and 0.9 kbp were subcloned into an expression vector pcDNA3.1+/Zeo; expressed in transfected cells
The experiment in a line: Enzyme inhibitory activity, mouse 11β-HSD1 (lysate of stably expressing CHO-K1 cells, cortisol by competitive ELISA). The settings on record: Table 2; mouse 11β-HSD1, cell lysate, 37° C. for 1 hour; read-out: m HSD1 in vitro assay (IC50 uM). The gist of the method:
(§1)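 Sonicated lysates of stably transfected cells (diluted to 0.1–0.4 mg/mL before addition) reacted for 1 h at 37 °C in pH 7.4 Tris/sucrose/EGTA/EDTA/MgCl2 buffer with 100 nmol/L cortisone or cortisol and 400 μmol/L NADPH or NAD+, then were heat-stopped at 95 °C. Inhibition rate = 100 minus residual activity.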

Test [2] concerns the target T2, human 11β-HSD2 (Homo sapiens, UniProt P80365).
T2 construct: The obtained PCR products of about 0.9 kbp, 1.2 kbp, and 0.9 kbp were subcloned into an expression vector pcDNA3.1+/Zeo; expressed in transfected cells
T2 sequence (P80365 1-405): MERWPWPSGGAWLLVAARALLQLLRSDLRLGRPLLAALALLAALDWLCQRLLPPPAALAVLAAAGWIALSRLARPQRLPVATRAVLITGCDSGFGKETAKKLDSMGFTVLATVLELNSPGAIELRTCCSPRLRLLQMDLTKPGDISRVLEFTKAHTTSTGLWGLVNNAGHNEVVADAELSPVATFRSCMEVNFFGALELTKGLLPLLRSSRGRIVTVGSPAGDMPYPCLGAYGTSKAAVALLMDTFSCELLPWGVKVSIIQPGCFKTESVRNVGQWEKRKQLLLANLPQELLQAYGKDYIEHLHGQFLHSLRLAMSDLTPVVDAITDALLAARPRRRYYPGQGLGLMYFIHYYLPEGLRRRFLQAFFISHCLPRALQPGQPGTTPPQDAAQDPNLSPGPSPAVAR
The experiment in a line: Enzyme inhibitory activity, human 11β-HSD2 (lysate of stably expressing HEK293 cells, cortisol by competitive ELISA). The settings on record: Table 1; human 11β-HSD2, cell lysate, 37° C. for 1 hour; read-out: h HSD2 in vitro assay (IC50 uM). Here is the method:
1. Human 11β-HSD1-, Human 11β-HSD2- and Mouse 11β-HSD1-Gene Clonings and Establishment of Stably Expressing Cells
Human 11β-HSD1-, human 11β-HSD2-, and mouse 11β-HSD1-gene clonings were conducted using as a template a reverse transcription product of human-liver RNA, human-kidney RNA (CELL APPLICATIONS), and mouse-kidney RNA respectively, by means of PCR cloning with reference to nucleotide sequences of Genbank Accession Nos. NM_005525, NM_000196, and NM_008288. The obtained PCR products of about 0.9 kbp, 1.2 kbp, and 0.9 kbp were subcloned into an expression vector pcDNA3.1+/Zeo (Invitrogen).
Human 11β-HSD1- and human 11β-HSD2-expressing vectors were transfected into human kidney-derived cell line, HEK293 cells, using a transfection reagent, jet PEI (Funakoshi). Mouse 11β-HSD1 was transfected to Chinese hamster ovary-derived cell line, CHO-K1 cells. Selection was conducted with 200-400 μg/mL of zeocine (Invitrogen) to provide stably expressing-cell clones. The stably expressing cells were suspended in buffer solution A (20 mmol/L Tris-HCl, pH 7.4, 250 mmol/L sucrose, 1 mmol/L EGTA, 1 mmol/L EDTA, 1 mmol/L MgCl2), sonicated, and then stored at −80° C.
2. Assay of Enzyme Inhibitory Activity
An enzymatic reaction was conducted using a polystyrene 96-well plate. Each well was added with 1 μL of a test agent dissolved in DMSO and then diluted (0.003 to 3 mmol/L), and further added with 10 μL of cell lysate diluted to a concentration of 0.1 mg/mL to 0.4 mg/mL. Next, 90 μL of buffer solution A containing substrate (100 nmol/L cortisone or cortisol) and coenzyme (400 μmol/L NADPH or NAD+) was added and the mixture was incubated at 37° C. for 1 hour. The enzymatic reaction was stopped by treating at 95° C. for 3 minutes. Cortisol that was present in the reaction solution was determined by a competitive ELISA shown below.
Anti-rabbit IgG antibody (Chemi-con) diluted to 2 μg/mL with carbonate buffer solution (pH 9.6) was added in 100 μL each to a 96-well immuno plate (Nunc) and immobilized by an incubation at 4° C. overnight. 50 μL of enzymatic reaction solution was put onto the plates, and further, anti-cortisol antibody (Cosmo Bio) and HRP-labeled cortisol (Cosmo Bio), diluted with buffer solution B (25 mmol/L Tris-HCl pH 7.4, 137 mmol/L NaCl, 2.68 mmol/L KCl), were added in 50 μL respectively and incubated at 4° C. overnight. After washed three times with buffer solution B containing 0.05% Tween 20, the plates were allowed to develop color by adding 100 μL of color reagent, TMB (Moss). The color reaction was stopped by 25 μL of 1 mol/L sulfuric acid and the absorbance was determined at 450 nm with a microplate reader (Molecular Device, VersaMax).
The values of human 11β-HSD1, human 11β-HSD2, and mouse 11β-HSD1 activities were subtracted from 100, and the resultant values were regarded as the respective 11β-HSD inhibition rates of example compounds. […] The comparison of human 11β-HSD1 and human 11β-HSD2 inhibiting activities is shown in Table 1, and the comparison of human 11β-HSD1 and mouse 11β-HSD1 inhibiting activities is shown in Table 2.

The target in test [3] is T3, human 11β-HSD1 (Homo sapiens, UniProt P28845).
T3 construct: The obtained PCR products of about 0.9 kbp, 1.2 kbp, and 0.9 kbp were subcloned into an expression vector pcDNA3.1+/Zeo; expressed in transfected cells
T3 sequence (P28845 whole entry): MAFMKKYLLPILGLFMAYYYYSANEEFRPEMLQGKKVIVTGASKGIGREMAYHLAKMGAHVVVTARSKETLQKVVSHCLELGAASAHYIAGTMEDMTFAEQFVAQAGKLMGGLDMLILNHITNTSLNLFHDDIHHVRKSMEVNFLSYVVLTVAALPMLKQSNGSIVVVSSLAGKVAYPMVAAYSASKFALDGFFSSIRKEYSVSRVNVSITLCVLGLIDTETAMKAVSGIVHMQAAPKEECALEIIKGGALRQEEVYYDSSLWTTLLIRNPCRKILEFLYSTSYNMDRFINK
The experiment in a line: Enzyme inhibitory activity, human 11β-HSD1 (lysate of stably expressing HEK293 cells, cortisol by competitive ELISA). The following applies: Table 1; human 11β-HSD1, cell lysate, 37° C. for 1 hour; read-out: h HSD1 in vitro assay (IC50 uM). The gist of the method: as §1
For orientation: An ELISA detects its analyte on a solid surface through an enzyme-linked reagent.

The structures appear in SMILES notation. Some results are limits rather than exact numbers.

For 17 compounds, IC50 results are on record in patent US8252781B2, “1,2-diazetidin-3-one derivatives and drugs containing same” (Kowa Company, Ltd., priority 2008, dated 2012).

T1 sequence (P50172 whole entry): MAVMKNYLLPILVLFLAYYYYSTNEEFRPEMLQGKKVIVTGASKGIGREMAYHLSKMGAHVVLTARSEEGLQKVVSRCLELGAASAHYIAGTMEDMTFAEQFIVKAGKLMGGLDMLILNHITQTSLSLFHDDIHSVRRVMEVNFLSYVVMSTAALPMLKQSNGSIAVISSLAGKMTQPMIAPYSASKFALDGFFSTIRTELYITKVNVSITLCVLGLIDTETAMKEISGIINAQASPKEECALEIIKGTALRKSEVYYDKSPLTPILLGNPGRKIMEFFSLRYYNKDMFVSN

Regarding `CSc1ccccc1CN1N(C2C3CC4CC(C3)CC2C4)C(=O)C1(C)C` (stereo not drawn) [Example 60, 4,4-dimethyl-1-[2-(methylthio)benzyl]-2-(adamantan-2-yl)-1,2-diazetidin-3-one], the IC50 stood at 0.15 µM in test [1], 1.1 µM in test [2] and 0.0082 µM in test [3].

Regarding `CC1(C)C(=O)N(C2CCCCCCC2)N1Cc1cccc(Cl)c1Cl` [Example 74, 2-cyclooctyl-1-(2,3-dichlorobenzyl)-4,4-dimethyl-1,2-diazetidin-3-one], the IC50 was 0.13 µM in test [1], 3 to 30 µM in test [2] and 0.046 µM in test [3].

For `CC1(C)C(=O)N(C2CCCCCCC2)N1Cc1ccc(F)cc1Cl` [Example 76, 1-(2-chloro-4-fluorobenzyl)-2-cyclooctyl-4,4-dimethyl-1,2-diazetidin-3-one], the figures for the IC50 in test [1], in test [2] and in test [3] were 0.14 µM, 4.8 µM and 0.031 µM, respectively.

Consider `CC1(C)C(=O)N(C2CCCCCCC2)N1Cc1cc(F)ccc1Cl` [Example 77, 1-(2-chloro-5-fluorobenzyl)-2-cyclooctyl-4,4-dimethyl-1,2-diazetidin-3-one], for which the results for the IC50 in test [1], in test [2] and in test [3] were 0.092 µM, 2 µM and 0.016 µM, respectively.

For the compound `Cc1ccc(C)c(C(=O)N2N(C3C4CC5CC(C4)CC3C5)C(=O)C2(C)C)c1` (stereo not drawn) [Example 161, 1-[(2,5-dimethylphenyl)carbonyl]-4,4-dimethyl-2-(adamantan-2-yl)-1,2-diazetidin-3-one], the IC50 in test [1] was 0.23 µM; in test [2] it was > 30 µM; in test [3], 0.5 µM.

Regarding `CC1(C)C(=O)N(C2C3CC4CC(C3)CC2C4)N1c1ccccc1[N+](=O)[O-]` (stereo not drawn) [Example 188, 4,4-dimethyl-1-(2-nitrophenyl)-2-(adamantan-2-yl)-1,2-diazetidin-3-one], the IC50 in test [1] is 0.76 µM; in test [2], > 30 µM; in test [3] it was 0.082 µM.

For `CC1(C)C(=O)N(C2C3CC4CC(C3)CC2C4)N1c1cccc(Cl)c1Cl` (stereo not drawn) [Example 206, 1-(2,3-dichlorophenyl)-4,4-dimethyl-2-(adamantan-2-yl)-1,2-diazetidin-3-one], the IC50 in test [1] was 0.44 µM; in test [2], 3 to 30 µM; in test [3] it was 0.0061 µM.

Consider `CC1(C)C(=O)N(C2C3CC4CC(C3)CC2C4)N1c1cccc2ccccc12` (stereo not drawn) [Example 212, 4,4-dimethyl-1-(naphthalen-1-yl)-2-(adamantan-2-yl)-1,2-diazetidin-3-one], for which the results for the IC50 in test [1], in test [2] and in test [3] were 0.089 µM, 3 to 30 µM and 0.032 µM, respectively.

As for `CC1(C)C(=O)N(C2C3CC4CC(C3)CC2C4)N1c1ccc(O)cc1` (stereo not drawn) [Example 215, 4,4-dimethyl-1-(4-hydroxyphenyl)-2-(adamantan-2-yl)-1,2-diazetidin-3-one], the IC50 in test [1] amounted to 0.54 µM; in test [2], 4.5 µM; in test [3], 0.023 µM.

Regarding `COCOc1ccccc1N1N(C2C3CC4CC(C3)CC2C4)C(=O)C1(C)C` (stereo not drawn) [Example 218, 1-[2-(methoxymethoxy)phenyl]-4,4-dimethyl-2-(adamantan-2-yl)-1,2-diazetidin-3-one], the IC50 in test [1] was 0.57 µM; in test [2], > 30 µM; in test [3], 0.81 µM.

For `CC1(C)C(=O)N(C2CCCCCCC2)N1c1cccc(Cl)c1Cl` [Example 221, 2-cyclooctyl-1-(2,3-dichlorophenyl)-4,4-dimethyl-1,2-diazetidin-3-one], the IC50 is 0.29 µM in test [1], 3 to 30 µM in test [2] and 0.023 µM in test [3].

Regarding `CC1(C)C(=O)N(C2CCCCCCC2)N1c1cccc2ccccc12` [Example 222, 2-cyclooctyl-4,4-dimethyl-1-(naphthalen-1-yl)-1,2-diazetidin-3-one], the IC50 was 0.087 µM in test [1], 5.5 µM in test [2] and 0.019 µM in test [3].

`CC1(C)C(=O)N([C@H]2C3CC4CC2C[C@](O)(C4)C3)N1c1ccccc1Cl` [Example 227, trans-1-(2-chlorophenyl)-2-(5-hydroxyadamantan-2-yl)-4,4-dimethyl-1,2-diazetidin-3-one]: the half-inhibitory concentration (IC50) in test [1] was 0.95 µM; in test [2], 3 to 30 µM; in test [3], 0.023 µM.

On to `COc1ccccc1N1N([C@H]2C3CC4CC2C[C@](Cl)(C4)C3)C(=O)C1(C)C` [Example 250, trans-2-(5-chloroadamantan-2-yl)-1-(2-methoxyphenyl)-4,4-dimethyl-1,2-diazetidin-3-one], for which the IC50 in test [1] is 0.13 µM; in test [2], > 30 µM; in test [3], 0.042 µM.

With `CC1(C)C(=O)N([C@H]2C3CC4CC2C[C@](Cl)(C4)C3)N1c1cccc(Cl)c1Cl` [Example 251, trans-2-(5-chloroadamantan-2-yl)-1-(2,3-dichlorophenyl)-4,4-dimethyl-1,2-diazetidin-3-one], the results for the IC50 in test [1], in test [2] and in test [3] were 0.61 µM, 3 to 30 µM and 0.03 µM, respectively.

`CC1(C)C(=O)N([C@H]2C3CC4CC2C[C@](Cl)(C4)C3)N1c1ccccc1O` [Example 253, trans-2-(5-chloroadamantan-2-yl)-1-(2-hydroxyphenyl)-4,4-dimethyl-1,2-diazetidin-3-one]: the concentration for half-maximal inhibition (IC50) was 0.15 µM in test [1], 3 to 30 µM in test [2] and 0.013 µM in test [3].

As to `CC1(C)C(=O)N([C@H]2C3CC4CC2C[C@@](C(=O)O)(C4)C3)N1c1cccc2ccccc12` [Example 272, cis-4-[2-(naphthalen-1-yl)-3,3-dimethyl-4-oxo-1,2-diazetidin-1-yl]adamantane-1-carboxylic acid], the figures for the IC50 in test [1], in test [2] and in test [3] were 0.9 µM, > 30 µM and 0.05 µM, respectively.

In general, IC50 refers to the concentration that inhibits the measured activity by half.
